Reference: US11013696B2, “Lipids and lipid compositions for the delivery of active agents” (Novartis AG, priority 2013, dated 2021)

Legend:
[1] = Particle size and polydispersity by DLS of RSV-F replicon LNPs; format: physicochemical
Experimental: (§1) A self-replicating replicon encoding RSV F protein was administered to BALB/c mice, 8 animals per group, by bilateral intramuscular vaccinations (50 μL per leg) on days 0 and 21 with the replicon (0.1 and 1 ng) formulated as liposomes with the lipids described below. All liposomes tested were composed of 40% cationic lipid, 10% DSPC, 48% cholesterol and 2% PEG-DMG with similar amounts of RNA. The liposomes were all prepared using the same technique as described above.
(§2) % entrapment (% E), Concentration of RNA (Conc), particle size measured by DLS, and polydispersity reported by DLS of LNPs prepared with different cationic lipids

RSV F protein = test: RSV immunogenicity: IgG titers after two IM immunizations with vA375 RNA expressing RSV-F in LNPs; format: in vivo, BALB/c mice; conditions: IM days 0 and 21, two weeks after two immunizations
[2] = Entrapment and RNA concentration of RSV-F replicon liposomes (Quant-iT RiboGreen); format: physicochemical
Experimental: RNA was encapsulated in liposomes made essentially by the method of Geall et al. (2012) PNAS vol. 109 (36): 14604-14609, Jeffs et al. (2005) Pharmaceutical Research 22 (3):362-372 and Maurer et al. (2001) Biophysical Journal, 80: 2310-2326 The liposomes were made of 10% DSPC (zwitterionic), 40% cationic lipid, 48% cholesterol and 2% PEG-conjugated DMG (2 kDa PEG). These proportions refer to the % moles in the total liposome.
Briefly, lipids were dissolved in ethanol (2 ml), a RNA replicon was dissolved in buffer (2 ml, 100 mM sodium citrate, pH 6) and these were mixed with 2 ml of buffer followed by 1 hour of equilibration. The mixture was then dialized overnight against 1×PBS. The resulting product contained liposomes, with ˜70-95% encapsulation efficiency. For in vitro and in vivo experiments formulations were diluted to the required RNA concentration with 1×PBS.
The percentage of encapsulated RNA and RNA concentration were determined by Quant-iT RiboGreen RNA reagent kit (Invitrogen), following manufacturer's instructions. The ribosomal RNA standard provided in the kit was used to generate a standard curve. Liposomes were diluted 10× or 100× in 1×TE buffer (from kit) before addition of the dye. Separately, liposomes were diluted 10× or 100× in 1×TE buffer containing 0.5% Triton X before addition of the dye (to disrupt the liposomes and thus to assay total RNA). Thereafter an equal amount of dye was added to each solution and then ˜180 μL of each solution after dye addition was loaded in duplicate into a 96 well tissue culture plate. The fluorescence (Ex 485 nm, Em 528 nm) was read on a microplate reader. All liposome formulations were dosed in vivo based on the encapsulated amount of RNA.
as §1, §2

[3] = Percent encapsulation of mRNA in lipid nanoparticles (Quant-iT Ribogreen); format: physicochemical; conditions: Table 2; leptin mRNA in LNP with the cationic lipid
How it was run: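 LNPs made by T-junction mixing of ethanolic lipids (cationic lipid:DSPC:cholesterol:PEG lipid 40:10:38:2, N:P 4:1) with mRNA in citrate pH 5.8-6.0, then dialysed against PBS overnight at 4 °C. RiboGreen fluorescence (ex 480/em 520 nm) measured in TE ± 0.75% Triton X-100; encapsulation = (total − free)/total.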

[4] = siRNA encapsulation in lipid nanoparticles (SYBR Gold); format: physicochemical; conditions: Table 2; FVII siRNA in LNP with the cationic lipid
How it was run: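 SYBR Gold fluorescence (ex 485/em 530 nm) of LNPs made by impinging-jet mixing of ethanolic lipids (cationic, cholesterol, optional DSPC, PEG/stealth lipid) with siRNA in citrate pH 4-6, siRNA:lipid ~0.05 wt/wt. Samples with and without Triton X-100 gave free and total siRNA for encapsulation efficiency.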

[5] = RSV-F replicon LNP prepared for 1st IM
[6] = RSV-F replicon LNP prepared for 2nd IM

Structure (SMILES) | PDI [1, 5] | Size [1, 5] [nm] | PDI [1, 6] | Size [1, 6] [nm] | Immunogenicity (2wp2, log10 IgG titers) (RSV F protein; 0.1 ng vA375 RNA) [log10 IgG titers] | Immunogenicity (2wp2, log10 IgG titers) (RSV F protein; 1 ng vA375 RNA) [log10 IgG titers] | % E (% entrapment) [2, 5] [%] | % E (% entrapment) [2, 6] [%] | % encapsulation mRNA Leptin [3] [%] | % encapsulation siRNA FVII [4] [%]
CCCCCCCCCCCCC(CCOC(=O)CCCCC(OCC(CCC)CCC)OCC(CCC)CCC)OC(=O)OCCCN(C)C (stereo not drawn) [Example 115, 3-(((3-(dimethylamino)propoxy)carbonyl)oxy)pentadecyl 6,6-bis((2-propylpentyl)oxy)hexanoate] | 0.075 | 141.3 | 0.065 | 130.9 | 1.91 | 3.31 | 95.76 | 95.78 | 97.8 | 
CCCCCCCCCCCCC(CCCOC(=O)CCCCC(COC(=O)CCCCCCC)COC(=O)CCCCCCC)OC(=O)C1(C)CCN(C)CC1 (stereo not drawn) [Example 131, 2-(5-((4-((1,4-dimethylpiperidine-4-carbonyl)oxy)hexadecyl)oxy)-5-oxopentyl)propane-1,3-diyl dioctanoate] | 0.119 | 138.3 | 0.07 | 143.5 | 4.43 | 5.22 | 85.31 | 80.31 | 96.4 | 
CCCCC/C=C\C/C=C\CCCCCCCCC(CCCOC(=O)CCC(=O)OC(CCCCCCCC)CCCCCCCC)OC(=O)OCCCN(C)C (stereo not drawn) [Example 58, (13Z,16Z)-4-(((3-(dimethylamino)propoxy)carbonyl)oxy)docosa-13,16-dien-1-yl heptadecan-9-yl succinate] | 0.111 | 139.4 | 0.075 | 137.1 | 4.19 | 4.26 | 87.48 | 87.03 | 90.2 | 
CCCCC/C=C\C/C=C\CCCCCCCC(=O)OCC(COC(=O)CCCCCCC/C=C\C/C=C\CCCCC)COC(=O)CCC(CCCCCCCCCCCC)OC(=O)OCCCN(C)C (stereo not drawn) [Example 105, (9Z,9′Z,12Z,12′Z)-2-(9-dodecyl-2-methyl-7,12-dioxo-6,8,13-trioxa-2-azatetradecan-14-yl)propane-1,3-diyl bis(octadeca-9,12-dienoate)] | 0.107 | 137.2 | 0.123 | 135.7 | 4.21 | 4.53 | 85.22 | 69.54 |  | 
CCCCC/C=C\C/C=C\CCCCCCCC(=O)OCC(COC(=O)CCCCCCC/C=C\C/C=C\CCCCC)OC(=O)C(CCCCCCCCCCCC)OC(=O)OCCCN(C)C (stereo not drawn) [Example 98, (9Z,9′Z,12Z,12′Z)-2-((2-(((3-(dimethylamino)propoxy)carbonyl)oxy)tetradecanoyl)oxy)propane-1,3-diyl bis(octadeca-9,12-dienoate)] | 0.07 | 139.4 | 0.065 | 130.9 | 4.28 | 4.64 | 85.91 | 76.36 | 73.4 | 
CCCCCCCCCCCCC(CCOC(=O)CCC(OCC(CCC)CCC)OCC(CCC)CCC)OC(=O)OCCCN(CC)CC (stereo not drawn) [Example 13, 3-(((3-(diethylamino)propoxy)carbonyl)oxy)pentadecyl 4,4-bis((2-propylpentyl)oxy)butanoate] |  |  |  |  |  |  |  |  | 81.1 | 90.3
CCCCCCCCCCCCC(CCOC(=O)CCCCCC(COC(=O)CCCCCCC)COC(=O)CCCCCCC)OC(=O)OCCCN(CC)CC (stereo not drawn) [Example 6, 2-(10-dodecyl-3-ethyl-8,14-dioxo-7,9,13-trioxa-3-azanonadecan-19-yl)propane-1,3-diyl dioctanoate] |  |  |  |  |  |  |  |  | 24.0 | 91.7
